According to US20060149064A1, “Process to prepare malayamycin derivatives” (priority 2003, published 2006):

Key:
[1] = test system: Puccinia triticina (PUCCRT); test: Foliar protectant test against Puccinia triticina (PUCCRT) on wheat; type: in vivo; conditions: 100 ppm foliar spray on wheat; inoculated one day after application; banded assessment
Protocol: (§1) This Example illustrates the fungicidal properties of certain of the novel compounds of formula (I). The compounds were tested against a variety of foliar fungal diseases of plants. The technique employed was as follows. Plants were grown on an artificial, cellulose based growing medium. The test compounds were individually diluted in reverse osmosis water to a final concentration of 100 ppm in water (that is, 1 mg of compound in a final volume of 10 ml) immediately before use. TWEEN 20 (at a final concentration of 0.05% by volume) was added with the water to improve retention of the spray deposit. TWEEN is a registered trade mark. The compounds were applied to the foliage of the test plants by spraying the plant to maximum droplet retention. […] After chemical application and inoculation, the plants were incubated under high humidity conditions (except those inoculated with Blumeria graminis f. sp. tritici) and then put into an appropriate environment to allow infection to proceed until the disease was ready for assessment. […] However, each individual disease was assessed after the same time period for all compounds. […] The disease level present (the percentage leaf area covered by actively sporulating disease) was assessed visually. For each treatment, the assessed values for all its replicates were meaned to provide mean disease values. Untreated control plants were assessed in the same manner. […]

[2] = test system: Stagonospora nodorum (LEPTNO); test: Foliar protectant test against Stagonospora nodorum (LEPTNO) on wheat; type: in vivo; conditions: 100 ppm foliar spray on wheat; inoculated one day after application; banded assessment
Protocol: as §1

[3] = test system: Blumeria graminis f. sp. tritici (ERYSGT); test: Foliar protectant test against Blumeria graminis f. sp. tritici (ERYSGT) on wheat; type: in vivo; conditions: 100 ppm foliar spray on wheat; inoculated 6 hours after application; banded assessment
Protocol: as §1

Compound: CO[C@@H]1CO[C@H]2C(O)[C@H](c3c[nH]c(=O)[nH]c3=O)O[C@@H]2[C@@H]1NC(N)=O (stereo partly shown) [Compound No. 1, malayamycin A]
- melting point: 158 °C (dec.)

Compound: CO[C@H]1CO[C@H]2C(O)[C@H](c3c[nH]c(=O)[nH]c3=O)O[C@@H]2[C@@H]1NC(N)=O (stereo partly drawn) [compound 2, 6-epi-malayamycin A]
- PRCO (percentage Disease Reduction from Control) PUCCRT 1 day Protectant [1]: 100
- PRCO (percentage Disease Reduction from Control) LEPTNO 1 day Protectant [2]: 45
- PRCO (percentage Disease Reduction from Control) ERYSGT 6 hour Protectant [3]: 50

Compound: NC(=O)N[C@H]1[C@H]2O[C@@H](c3c[nH]c(=O)[nH]c3=O)C(O)[C@@H]2OC[C@H]1O (stereo partly shown) [compound 3, desmethylmalayamycin A]
- PRCO (percentage Disease Reduction from Control) PUCCRT 1 day Protectant [1]: 100
- PRCO (percentage Disease Reduction from Control) LEPTNO 1 day Protectant [2]: 100
- PRCO (percentage Disease Reduction from Control) ERYSGT 6 hour Protectant [3]: 0
